The source of these data is patent publication US11939314B2, “Quinolin-2-one derivatives” (MERCK PATENT GMBH, priority 2016, dated 2024).

Counter-ions that a name gives are not always drawn.

One test concerns the target T1, c-Kit(V654A) (Homo sapiens, UniProt P10721, V654A).
T1 construct: amino acids 544-end containing the V654A mutation; GST (N)
The test is described as follows: c-Kit(V654A) assay. Type of test: biochemical. The following applies: recombinant human c-Kit aa 544-end, 200 μM ATP, 1.4E-06 means 1.4×10^−6, read-out: Inhibition (IC50) of c-KIT (V654A). Put shortly:
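Radiometric filter-binding read-out: substrate 33P incorporation counted by scintillation after P30 filtermat washes in 75 mM phosphoric acid and methanol. Enzyme: N-GST recombinant human c-Kit aa 544-end carrying V654A.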

The target in the next test is T2, PDGFRalpha(V561D) (Homo sapiens, UniProt P16234, V561D).
T2 construct: recombinant human PDGFRalpha, amino acids 550end containing the V561 D mutation; 6His (N)
T2 sequence (P16234 550-1089 V561D): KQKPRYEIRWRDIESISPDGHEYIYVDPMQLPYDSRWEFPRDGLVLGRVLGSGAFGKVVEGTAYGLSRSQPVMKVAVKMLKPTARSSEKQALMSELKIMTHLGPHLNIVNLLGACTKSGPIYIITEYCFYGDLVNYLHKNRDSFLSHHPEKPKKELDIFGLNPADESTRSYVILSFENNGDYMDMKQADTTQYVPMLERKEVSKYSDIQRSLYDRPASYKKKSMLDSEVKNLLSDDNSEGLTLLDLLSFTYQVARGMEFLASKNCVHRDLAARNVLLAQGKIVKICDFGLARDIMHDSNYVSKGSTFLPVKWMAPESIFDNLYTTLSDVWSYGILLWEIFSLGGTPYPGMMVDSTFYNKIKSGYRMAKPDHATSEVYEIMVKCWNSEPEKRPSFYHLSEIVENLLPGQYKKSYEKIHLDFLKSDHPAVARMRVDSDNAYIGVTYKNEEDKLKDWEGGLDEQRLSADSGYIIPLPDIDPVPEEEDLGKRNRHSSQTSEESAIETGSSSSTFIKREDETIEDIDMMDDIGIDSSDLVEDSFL
The test can be described thus: PDGFRalpha(V561D) assay. Format: biochemical. The following applies: recombinant human PDGFRalpha aa 550-end, 200 μM ATP, 1.4E-06 means 1.4×10^−6, read-out: Inhibition (IC50) of PDGFRα (V561D). A digest of the protocol: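 Radiometric filter-binding assay: substrate phosphorylation by recombinant N-His-tagged human PDGFRα 550-end V561D was quenched with 3% phosphoric acid after 40 min at room temperature, then counted.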

T1 sequence (P10721 544-976 V654A): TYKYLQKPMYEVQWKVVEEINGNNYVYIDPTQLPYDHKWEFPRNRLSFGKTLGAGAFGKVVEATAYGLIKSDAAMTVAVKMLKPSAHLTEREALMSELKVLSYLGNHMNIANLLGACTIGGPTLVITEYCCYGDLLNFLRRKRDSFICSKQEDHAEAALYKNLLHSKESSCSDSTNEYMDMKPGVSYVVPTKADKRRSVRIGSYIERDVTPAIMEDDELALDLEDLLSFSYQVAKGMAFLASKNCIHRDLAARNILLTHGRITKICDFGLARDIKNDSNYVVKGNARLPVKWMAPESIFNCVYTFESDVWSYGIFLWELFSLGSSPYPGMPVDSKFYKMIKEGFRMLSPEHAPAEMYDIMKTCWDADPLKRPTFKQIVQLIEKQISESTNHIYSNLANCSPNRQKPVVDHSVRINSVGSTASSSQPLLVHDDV

In the case of `CO[C@H]1CN(C(=O)c2ccc(-n3cc(-c4cc5cc(F)ccc5[nH]c4=O)cn3)cc2)C[C@@H]1OC` [A303, 3-{1-[4-((3S,4S)-3,4-dimethoxy-pyrrolidine-1-carbonyl)-phenyl]-1H-pyrazol-4-yl}-6-fluoro-1H-quinolin-2-one], the results for the IC50 on c-Kit(V654A) and at PDGFRalpha(V561D) were 37 nM and 6 nM, respectively.
As for `O=C(c1ccc(-n2cc(-c3cc4cc(F)c(F)cc4[nH]c3=O)nn2)cc1)N1C[C@H]2CNC[C@H]2C1` [A307, 6,7-difluoro-3-{1-[4-((cis)-hexahydro-pyrrolo[3,4-c]pyrrole-2-carbonyl)-phenyl]-1H-[1,2,3]triazol-4-yl}-1H-quinolin-2-one], the IC50 (as a rule, the concentration that inhibits the measured activity by half) was determined as 17 nM on c-Kit(V654A) and 240 nM on PDGFRalpha(V561D).
Take `O=C(c1ccc(-n2cc(-c3cc4cc(F)ccc4[nH]c3=O)nn2)cc1)N1C[C@H]2CNC[C@H]2C1` [A308, 6-fluoro-3-{1-[4-((cis)-hexahydro-pyrrolo[3,4-c]pyrrole-2-carbonyl)-phenyl]-1H-[1,2,3]triazol-4-yl}-1H-quinolin-2-one]: the IC50 on c-Kit(V654A) amounted to 10 nM; on PDGFRalpha(V561D) it was 97.4 nM.
As to `N[C@@H]1CCCN(C(=O)c2ccc(-n3cc(-c4cc5cc(F)c(F)cc5[nH]c4=O)nn3)cc2)C1` [A309, 3-{1-[4-((R)-3-amino-piperidine-1-carbonyl)-phenyl]-1H-[1,2,3]triazol-4-yl}-6,7-difluoro-1H-quinolin-2-one hydrochloride], the IC50 on c-Kit(V654A) was determined as 63 nM; on PDGFRalpha(V561D), 130 nM.
For `N[C@H]1CCCN(C(=O)c2ccc(-n3cc(-c4cc5cc(F)c(F)cc5[nH]c4=O)nn3)cc2)C1` [A310, 3-{1-[4-((S)-3-amino-piperidine-1-carbonyl)-phenyl]-1H-[1,2,3]triazol-4-yl}-6,7-difluoro-1H-quinolin-2-one hydrochloride] the same measures were 44 nM and 85 nM.
For the molecule `CN[C@@H]1CCN(C(=O)c2ccc(-n3cc(-c4cc5cc(F)ccc5[nH]c4=O)nn3)cc2)C1` [A311, 6-Fluoro-3-{1-[4-((R)-3-methylamino-pyrrolidine-1-carbonyl)-phenyl]-1H-[1,2,3]triazol-4-yl}-1H-quinolin-2-one hydrochloride], the IC50 was found to be 21 nM on c-Kit(V654A) and 310 nM at PDGFRalpha(V561D).
In the case of `CN[C@H]1CCN(C(=O)c2ccc(-n3cc(-c4cc5cc(F)ccc5[nH]c4=O)nn3)cc2)C1` [A312, 6-fluoro-3-{1-[4-((S)-3-methylamino-pyrrolidine-1-carbonyl)-phenyl]-1H-[1,2,3]triazol-4-yl}-1H-quinolin-2-one hydrochloride], the IC50 came to 61 nM on c-Kit(V654A) and 290 nM on PDGFRalpha(V561D).
Taken in the same sequence, the figures for `N[C@@H]1CCN(C(=O)c2ccc(-n3cc(-c4cc5cc(F)ccc5[nH]c4=O)nn3)cc2)C1` [A313, 3-{1-[4-((R)-3-amino-pyrrolidine-1-carbonyl)-phenyl]-1H-[1,2,3]triazol-4-yl}-6-fluoro-1H-quinolin-2-one hydrochloride] were 26 nM and 330 nM.
Taken in the same sequence, the figures for `O=C(c1ccc(-n2cc(-c3cc4cc(F)ccc4[nH]c3=O)nn2)cc1)N1CCN[C@@H](CO)C1` [A314, 6-fluoro-3-{1-[4-((R)-3-hydroxymethyl-piperazine-1-carbonyl)-phenyl]-1H-[1,2,3]triazol-4-yl}-1H-quinolin-2-one hydrochloride] were 72 nM and 180 nM.
Taken in the same sequence, the figures for `O=C(c1ccc(-n2cc(-c3cc4cc(F)ccc4[nH]c3=O)nn2)cc1)N1CCNC[C@H]1CO` [A315, 6-fluoro-3-{1-[4-((S)-2-hydroxymethyl-piperazine-1-carbonyl)-phenyl]-1H-[1,2,3]triazol-4-yl}-1H-quinolin-2-one] were 200 nM and 1400 nM.
Consider `O=C(c1ccc(-n2cc(-c3cc4cc(F)ccc4[nH]c3=O)nn2)cc1)N1CCNC[C@@H]1CO` [A316, 6-fluoro-3-{1-[4-((R)-2-hydroxymethyl-piperazine-1-carbonyl)-phenyl]-1H-[1,2,3]triazol-4-yl}-1H-quinolin-2-one], for which the IC50 on c-Kit(V654A) was found to be 120 nM; on PDGFRalpha(V561D), 520 nM.
